Earlier results as cited in US6849589B2, “Cleaning composition” (3M Innovative Properties Company, priority 2001, dated 2005).

Settings: in water, at about 20° C.
For `CCCCCCCCO` [Example 1-octanol, 1-octanol], the water solubility is listed as “about 0.1 weight percent”. In the case of `CCCCCCCCN1CCCC1=O` [N-octyl pyrrolidone], the water solubility is given as “about 0.124 weight percent”. In the case of `CC(C)CC(=O)CC(C)C` [di-isobutyl ketone], the water solubility is given as “about 0.05 weight percent”. For `CC(C)CCCCCO` [isooctyl alcohol], the water solubility is listed as “about 0.06 weight percent”.
